Seven compounds from PubChem BioAssay (NCI) can be followed below.

Test systems include A498 renal; ACHN renal; BT-549 breast; CCRF-CEM leukemia; DU-145 prostate; EKVX NSCLC; HS 578T breast; M14 melanoma; MDA-MB-231 breast; MDA-MB-435; MDA-N; NCI-H226 lung; OVCAR-5 ovarian; RPMI-8226 leukemia; SF-539 CNS; SK-MEL-2 melanoma; SK-MEL-5 melanoma; SNB-19 CNS; U251 CNS; UACC-257 melanoma.
What all share (experiment): inhibition of tumour cell growth, NCI panel, 48 h

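Exposure lasted 48 hours, with cells grown in 96-well plates and compounds tested at five concentrations. TGI is the concentration that stops growth completely.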

Turning to `CN(C)CCCNC(=O)CCNC(=O)c1cc(NC(=O)c2cc(NC(=O)c3cc(NC(=O)c4nccn4C)cn3C)cn2C)cn1C`, the TGI with A498 renal, with ACHN renal, with BT-549 breast, in the test on CCRF-CEM leukemia, in the test on DU-145 prostate and with EKVX NSCLC was more than 100 µM throughout. Besides, the TGI in the test with HS 578T breast, with M14 melanoma, in the test on MDA-MB-231 breast, with MDA-MB-435, with MDA-N and in the test with NCI-H226 lung was more than 100 µM each time. The TGI in the test on OVCAR-5 ovarian, in the test on RPMI-8226 leukemia, in the test with SF-539 CNS, in the test with SK-MEL-2 melanoma, in the test with SK-MEL-5 melanoma and in the test on SNB-19 CNS was more than 100 µM each time. Besides, the TGI with U251 CNS and with UACC-257 melanoma was more than 100 µM each time.

Regarding `O=C(SC1=NCCN1)c1cccc2ccccc12`, the TGI in the test with A498 renal was more than 100 µM; with ACHN renal, more than 100 µM; in the test on BT-549 breast, more than 100 µM; in the test on CCRF-CEM leukemia it was 70.1 µM; in the test with DU-145 prostate, more than 100 µM; in the test on EKVX NSCLC, more than 100 µM. Also, the TGI with HS 578T breast, in the test on M14 melanoma, in the test on MDA-MB-231 breast, in the test with MDA-MB-435, with MDA-N and in the test with NCI-H226 lung was more than 100 µM throughout. Further, the TGI in the test with OVCAR-5 ovarian is more than 100 µM; in the test with RPMI-8226 leukemia, 94.6 µM; in the test with SF-539 CNS, more than 100 µM; with SK-MEL-2 melanoma, more than 100 µM; in the test with SK-MEL-5 melanoma, more than 100 µM; in the test with SNB-19 CNS, more than 100 µM. In addition, the figures for the TGI with U251 CNS and in the test with UACC-257 melanoma were more than 100 µM and 95.9 µM, respectively.

With `COC(=O)C1=C(OC(=O)/C(=C/c2ccccc2)c2ccc(Cl)cc2)C(C(=O)OC)[C@@]2(O)[C@@H](C(=O)OC)[C@H](C)C[C@@H]1[C@@H]2C(=O)OC` (stereo not given in full), the TGI with A498 renal, in the test on ACHN renal, in the test with BT-549 breast, in the test with CCRF-CEM leukemia, in the test with DU-145 prostate and in the test on EKVX NSCLC was more than 100 µM each time. Also, the TGI in the test with HS 578T breast, with M14 melanoma, in the test on MDA-MB-231 breast, in the test with MDA-MB-435, in the test with MDA-N and in the test with NCI-H226 lung was more than 100 µM each time. Also, the TGI in the test on OVCAR-5 ovarian, in the test on RPMI-8226 leukemia, in the test with SF-539 CNS, with SK-MEL-2 melanoma, in the test with SK-MEL-5 melanoma and in the test with SNB-19 CNS was more than 100 µM each time. Further, the TGI in the test on U251 CNS and with UACC-257 melanoma was more than 100 µM in each case.

In the case of `CCOC(=O)c1cc2c3c(c(C(C)=O)c(O)c2[nH]1)N(C(C)=O)CC3`, the TGI in the test on A498 renal, in the test with ACHN renal, in the test with BT-549 breast, in the test with CCRF-CEM leukemia, in the test with DU-145 prostate and with EKVX NSCLC was more than 100 µM in each case. Besides, the TGI in the test with HS 578T breast, with M14 melanoma, in the test with MDA-MB-231 breast, in the test on MDA-MB-435, with MDA-N and in the test with NCI-H226 lung was more than 100 µM in each case. Moreover, the TGI in the test on OVCAR-5 ovarian, in the test with RPMI-8226 leukemia, in the test with SF-539 CNS, with SK-MEL-2 melanoma, in the test on SK-MEL-5 melanoma and in the test on SNB-19 CNS was more than 100 µM each time. Also, the TGI in the test on U251 CNS and in the test on UACC-257 melanoma was more than 100 µM throughout.

Turning to `COC(=O)C1=C(OC(=O)c2ccccc2)C(C(=O)OC)[C@@]2(O)[C@@H](C(=O)OC)[C@H](C)C[C@@H]1[C@@H]2C(=O)OC` (stereo not given in full), the TGI in the test with A498 renal is 94.5 µM; in the test with ACHN renal, more than 100 µM; with BT-549 breast, 78.1 µM; in the test with CCRF-CEM leukemia, more than 100 µM; with DU-145 prostate it was more than 100 µM; with EKVX NSCLC, more than 100 µM. Moreover, the TGI with HS 578T breast is more than 100 µM; with M14 melanoma it was more than 100 µM; in the test with MDA-MB-231 breast it was more than 100 µM; in the test with MDA-MB-435, more than 100 µM; with MDA-N, 63.5 µM; with NCI-H226 lung, more than 100 µM. The TGI is more than 100 µM in the test with OVCAR-5 ovarian; more than 100 µM with RPMI-8226 leukemia; 34.5 µM with SF-539 CNS; more than 100 µM with SK-MEL-2 melanoma; more than 100 µM in the test with SK-MEL-5 melanoma; more than 100 µM in the test on SNB-19 CNS. In addition, the TGI with U251 CNS and in the test on UACC-257 melanoma was more than 100 µM throughout.

Turning to `Nc1ccc(Oc2ccc(C3(c4ccc(Oc5ccc(N)cc5)cc4)C4CC5CC(C4)CC3C5)cc2)cc1`, the TGI in the test with A498 renal is 9.36 µM; with ACHN renal, more than 62.9 µM; with BT-549 breast it was more than 49.2 µM; in the test on CCRF-CEM leukemia it was 35.8 µM; in the test on DU-145 prostate, more than 53.5 µM; in the test with EKVX NSCLC it was more than 81.4 µM. In addition, the TGI was more than 100 µM in the test with HS 578T breast; 17 µM in the test with M14 melanoma; 37.6 µM in the test with MDA-MB-231 breast; 35.6 µM with MDA-MB-435; 40.4 µM with MDA-N; more than 78.4 µM in the test with NCI-H226 lung. Also, the TGI in the test with OVCAR-5 ovarian was more than 100 µM; with RPMI-8226 leukemia it was 17.4 µM; in the test on SF-539 CNS, more than 66.2 µM; with SK-MEL-2 melanoma, more than 100 µM; in the test with SK-MEL-5 melanoma it was more than 100 µM; in the test on SNB-19 CNS, more than 100 µM. Moreover, the TGI in the test with U251 CNS is 21.5 µM; in the test with UACC-257 melanoma, more than 100 µM.

As to `Clc1ccc(C(Cc2cccc(Cl)c2)c2c(Cl)nc(N3CCNCC3)nc2Cl)cc1` (stereo not given), the TGI in the test on A498 renal is 28.5 µM; with ACHN renal, 28.8 µM; in the test with BT-549 breast it was 39.1 µM; with CCRF-CEM leukemia, 31.9 µM; in the test on DU-145 prostate, 33.9 µM; in the test on EKVX NSCLC, more than 100 µM. For the same compound, the TGI is 38.8 µM in the test on HS 578T breast; 26.2 µM in the test on M14 melanoma; 26.4 µM in the test on MDA-MB-231 breast; 30.3 µM in the test with MDA-MB-435; 29.6 µM in the test on MDA-N; more than 100 µM in the test on NCI-H226 lung. Besides, the TGI in the test on OVCAR-5 ovarian turned out to be 25 µM; with RPMI-8226 leukemia, 52.2 µM; in the test on SF-539 CNS, 35.2 µM; in the test on SK-MEL-2 melanoma, 40.9 µM; with SK-MEL-5 melanoma, 29.7 µM; in the test with SNB-19 CNS it was 30.5 µM. For the same compound, the TGI was determined as 30 µM in the test with U251 CNS and 37.6 µM in the test with UACC-257 melanoma.
